In PubChem BioAssay AID1963446 (Molecular Pharmacology Branch, DTP, NCI, 2024):

Tested on: 993429-296-R-J1-PDC complex spheroid growth, percent test/control
Assay: Anticancer human tumor 993429-296-R-J1-PDC patient-derived uterine sarcoma cell line growth inhibition [Asc]
Conditions: for IC50: curve of first compound; for viability, T/C: stronger effect = lower value
Summary of the method: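 Complex spheroids combining tumor cells with HUVEC endothelial cells and human MSCs, at 37 degrees C, 5% CO2; agents tested alone or combined, half-log dilutions from at or near clinical Cmax, or 10 microM if Cmax unknown.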

[1] = second compound 0.03 µM, first compound 0.00316 µM
[2] = second compound 0.03 µM, first compound 0.01 µM
[3] = second compound 0.03 µM, first compound 0.0316 µM
[4] = second compound 0.03 µM, first compound 0.1 µM
[5] = second compound 0.03 µM, first compound 0.316 µM
[6] = second compound 0.03 µM, first compound 1 µM
[7] = second compound 0.0949 µM, first compound 0.00316 µM
[8] = second compound 0.0949 µM, first compound 0.01 µM
[9] = second compound 0.0949 µM, first compound 0.0316 µM
[10] = second compound 0.0949 µM, first compound 0.1 µM
[11] = second compound 0.0949 µM, first compound 0.316 µM
[12] = second compound 0.0949 µM, first compound 1 µM
[13] = second compound 0.3 µM, first compound 0.00316 µM
[14] = second compound 0.3 µM, first compound 0.01 µM
[15] = second compound 0.3 µM, first compound 0.0316 µM
[16] = second compound 0.3 µM, first compound 0.1 µM
[17] = second compound 0.3 µM, first compound 0.316 µM
[18] = second compound 0.3 µM, first compound 1 µM
[19] = second compound 0.949 µM, first compound 0.00316 µM
[20] = second compound 0.949 µM, first compound 0.01 µM
[21] = second compound 0.949 µM, first compound 0.0316 µM
[22] = second compound 0.949 µM, first compound 0.1 µM
[23] = second compound 0.949 µM, first compound 0.316 µM
[24] = second compound 0.949 µM, first compound 1 µM
[25] = second compound 3 µM, first compound 0.00316 µM
[26] = second compound 3 µM, first compound 0.01 µM
[27] = second compound 3 µM, first compound 0.0316 µM
[28] = second compound 3 µM, first compound 0.1 µM
[29] = second compound 3 µM, first compound 0.316 µM
[30] = second compound 3 µM, first compound 1 µM
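Further: spheroids exposed to compounds for seven days.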

Q: What does the source list for `CCN1CCN(Cc2ccc(Nc3ncc(F)c(-c4cc(F)c5nc(C)n(C(C)C)c5c4)n3)nc2)CC1` + CCN1C(C(=O)NC23CCC(C(=O)O)(CC2)CC3)C(c2cccc(Cl)c2F)C2(C(=O)Nc3cc(Cl)ccc32)C12CCCCC2?
A: IC50 (second compound 0.03 µM): > 1000 nM; IC50 (second compound 0.0949 µM): > 1000 nM; IC50 (second compound 0.3 µM): > 1000 nM; IC50 (second compound 0.949 µM): > 1000 nM; IC50 (second compound 3 µM): > 1000 nM; viability, T/C [1]: 101%; viability, T/C [2]: 98.5%; viability, T/C [3]: 102%; viability, T/C [4]: 110%; viability, T/C [5]: 103%; viability, T/C [6]: 125%; viability, T/C [7]: 99.8%; viability, T/C [8]: 107%; viability, T/C [9]: 97.3%; viability, T/C [10]: 95.5%; viability, T/C [11]: 110%; viability, T/C [12]: 98.3%; viability, T/C [13]: 102%; viability, T/C [14]: 105%; viability, T/C [15]: 89.5%; viability, T/C [16]: 109%; viability, T/C [17]: 120%; viability, T/C [18]: 104%; viability, T/C [19]: 103%; viability, T/C [20]: 99.5%; viability, T/C [21]: 106%; viability, T/C [22]: 99.9%; viability, T/C [23]: 107%; viability, T/C [24]: 131%; viability, T/C [25]: 97.2%; viability, T/C [26]: 92.9%; viability, T/C [27]: 99.7%; viability, T/C [28]: 77.8%; viability, T/C [29]: 84.5%; viability, T/C [30]: 115%

Q: Which IC50 (second compound 0.03 µM) does the source give for `O=C(c1ccc(F)c(F)c1Nc1ccc(I)cc1F)N1CC(O)([C@@H]2CCCCN2)C1` + CCN1C(C(=O)NC23CCC(C(=O)O)(CC2)CC3)C(c2cccc(Cl)c2F)C2(C(=O)Nc3cc(Cl)ccc32)C12CCCCC2 here?
A: 42.6 nM

Q: And the IC50 (second compound 0.0949 µM)?
A: 64.6 nM

Q: And the IC50 (second compound 0.3 µM)?
A: 42.4 nM

Q: What about the IC50 (second compound 0.949 µM) of the same compound?
A: 50.1 nM

Q: And the IC50 (second compound 3 µM)?
A: 19.3 nM

Q: What about the viability, T/C [1] of the same compound?
A: 98%

Q: And the viability, T/C [2]?
A: 72.2%

Q: And the viability, T/C [3]?
A: 58%

Q: And the viability, T/C [4]?
A: 38.7%

Q: What about the viability, T/C [5] of the same compound?
A: 8.47%

Q: What about the viability, T/C [6] of the same compound?
A: 1.77%

Q: And the viability, T/C [7]?
A: 80.2%

Q: And the viability, T/C [8]?
A: 87.7%

Q: And the viability, T/C [9]?
A: 66%

Q: And the viability, T/C [10]?
A: 39.8%

Q: What about the viability, T/C [11] of the same compound?
A: 8.87%

Q: What about the viability, T/C [12] of the same compound?
A: 1.19%

Q: And the viability, T/C [13]?
A: 85.8%

Q: What about the viability, T/C [14] of the same compound?
A: 74.7%

Q: And the viability, T/C [15]?
A: 61.1%

Q: And the viability, T/C [16]?
A: 22.3%

Q: What about the viability, T/C [17] of the same compound?
A: 8.15%

Q: And the viability, T/C [18]?
A: 2.9%

Q: What about the viability, T/C [19] of the same compound?
A: 86.8%

Q: And the viability, T/C [20]?
A: 67.3%

Q: And the viability, T/C [21]?
A: 66.3%

Q: What about the viability, T/C [22] of the same compound?
A: 30.9%

Q: What about the viability, T/C [23] of the same compound?
A: 8.19%

Q: What about the viability, T/C [24] of the same compound?
A: 2.6%

Q: What about the viability, T/C [25] of the same compound?
A: 74.9%

Q: What about the viability, T/C [26] of the same compound?
A: 64.4%

Q: What about the viability, T/C [27] of the same compound?
A: 38.3%

Q: And the viability, T/C [28]?
A: 20.6%

Q: What about the viability, T/C [29] of the same compound?
A: 5.52%

Q: And the viability, T/C [30]?
A: 0.67%

Q: With `NC1CCC(NC2CC2c2ccccc2)CC1` (stereo not given) + CCN1C(C(=O)NC23CCC(C(=O)O)(CC2)CC3)C(c2cccc(Cl)c2F)C2(C(=O)Nc3cc(Cl)ccc32)C12CCCCC2 as the compound, how does the IC50 (second compound 0.03 µM) read?
A: > 100 nM

Q: What about the IC50 (second compound 0.0949 µM) of the same compound?
A: > 100 nM

Q: And the IC50 (second compound 0.3 µM)?
A: > 100 nM

Q: And the IC50 (second compound 0.949 µM)?
A: > 100 nM

Q: And the IC50 (second compound 3 µM)?
A: > 100 nM

Q: What about the viability, T/C (second compound 0.03 µM, first compound 0.000316 µM) of the same compound?
A: 76.4%

Q: What about the viability, T/C (second compound 0.03 µM, first compound 0.001 µM) of the same compound?
A: 75.4%

Q: What about the viability, T/C [1] of the same compound?
A: 80.2%

Q: What about the viability, T/C [2] of the same compound?
A: 77.8%

Q: And the viability, T/C [3]?
A: 81.4%

Q: What about the viability, T/C [4] of the same compound?
A: 91.8%

Q: What about the viability, T/C (second compound 0.0949 µM, first compound 0.000316 µM) of the same compound?
A: 91.1%

Q: What about the viability, T/C (second compound 0.0949 µM, first compound 0.001 µM) of the same compound?
A: 77.5%

Q: What about the viability, T/C [7] of the same compound?
A: 74.7%

Q: What about the viability, T/C [8] of the same compound?
A: 66.8%

Q: And the viability, T/C [9]?
A: 93%

Q: What about the viability, T/C [10] of the same compound?
A: 81.5%

Q: What about the viability, T/C (second compound 0.3 µM, first compound 0.000316 µM) of the same compound?
A: 98.2%

Q: What about the viability, T/C (second compound 0.3 µM, first compound 0.001 µM) of the same compound?
A: 74.7%

Q: And the viability, T/C [13]?
A: 69%

Q: And the viability, T/C [14]?
A: 80.2%

Q: And the viability, T/C [15]?
A: 69.3%

Q: What about the viability, T/C [16] of the same compound?
A: 83.8%

Q: What about the viability, T/C (second compound 0.949 µM, first compound 0.000316 µM) of the same compound?
A: 72%

Q: And the viability, T/C (second compound 0.949 µM, first compound 0.001 µM)?
A: 76.9%

Q: And the viability, T/C [19]?
A: 83.1%

Q: What about the viability, T/C [20] of the same compound?
A: 83.2%

Q: And the viability, T/C [21]?
A: 76.6%

Q: And the viability, T/C [22]?
A: 88.9%

Q: And the viability, T/C (second compound 3 µM, first compound 0.000316 µM)?
A: 75.2%

Q: What about the viability, T/C (second compound 3 µM, first compound 0.001 µM) of the same compound?
A: 85.6%

Q: What about the viability, T/C [25] of the same compound?
A: 79.7%

Q: What about the viability, T/C [26] of the same compound?
A: 74.1%

Q: And the viability, T/C [27]?
A: 70.3%

Q: And the viability, T/C [28]?
A: 71%

Q: Which results are given for `Cn1ncnc1[C@H]1c2n[nH]c(=O)c3cc(F)cc(c23)N[C@@H]1c1ccc(F)cc1` + Cc1c(S(C)(=O)=O)c(-c2cc(F)cc(N3CCN(c4ccc(NS(=O)(=O)c5ccc(NC(CCN6CCC(C(=O)OCCCP(=O)(O)O)CC6)CSc6ccccc6)c(S(=O)(=O)C(F)(F)F)c5)cc4)CC3)c2)c(-c2ccc(Cl)cc2)n1C(C)C?
A: IC50 (second compound 0.1 µM): 9.83 nM; IC50 (second compound 0.316 µM): 4.71 nM; IC50 (second compound 1 µM): 3.8 nM; IC50 (second compound 3.16 µM): 1.01 nM; IC50 (second compound 10 µM): 10.1 nM; viability, T/C (second compound 0.1 µM, first compound 0.000316 µM): 66.9%; viability, T/C (second compound 0.1 µM, first compound 0.001 µM): 70.1%; viability, T/C (second compound 0.1 µM, first compound 0.00316 µM): 64.5%; viability, T/C (second compound 0.1 µM, first compound 0.01 µM): 46.7%; viability, T/C (second compound 0.1 µM, first compound 0.0316 µM): 34.1%; viability, T/C (second compound 0.1 µM, first compound 0.1 µM): 18.5%; viability, T/C (second compound 0.316 µM, first compound 0.000316 µM): 62.6%; viability, T/C (second compound 0.316 µM, first compound 0.001 µM): 73.7%; viability, T/C (second compound 0.316 µM, first compound 0.00316 µM): 50.3%; viability, T/C (second compound 0.316 µM, first compound 0.01 µM): 37.3%; viability, T/C (second compound 0.316 µM, first compound 0.0316 µM): 33.3%; viability, T/C (second compound 0.316 µM, first compound 0.1 µM): 14.2%; viability, T/C (second compound 1 µM, first compound 0.000316 µM): 68.8%; viability, T/C (second compound 1 µM, first compound 0.001 µM): 68.5%; viability, T/C (second compound 1 µM, first compound 0.00316 µM): 50.1%; viability, T/C (second compound 1 µM, first compound 0.01 µM): 35.8%; viability, T/C (second compound 1 µM, first compound 0.0316 µM): 22.7%; viability, T/C (second compound 1 µM, first compound 0.1 µM): 10.6%; viability, T/C (second compound 3.16 µM, first compound 0.000316 µM): 52.8%; viability, T/C (second compound 3.16 µM, first compound 0.001 µM): 48.5%; viability, T/C (second compound 3.16 µM, first compound 0.00316 µM): 44.3%; viability, T/C (second compound 3.16 µM, first compound 0.01 µM): 28.9%; viability, T/C (second compound 3.16 µM, first compound 0.0316 µM): 9.8%; viability, T/C (second compound 3.16 µM, first compound 0.1 µM): 10.8%; viability, T/C (second compound 10 µM, first compound 0.000316 µM): 103%; viability, T/C (second compound 10 µM, first compound 0.001 µM): 81%; viability, T/C (second compound 10 µM, first compound 0.00316 µM): 93.3%; viability, T/C (second compound 10 µM, first compound 0.01 µM): 50.1%; viability, T/C (second compound 10 µM, first compound 0.0316 µM): 12.4%; viability, T/C (second compound 10 µM, first compound 0.1 µM): 9.31%
